According to article PMC10394516, “The pharmacokinetic profile of brensocatib and its effect on pharmacodynamic biomarkers including NE, PR3, and CatG in various rodent species” (Frontiers in Pharmacology, 2023):

Legend:
[1] = Plasma PK of brensocatib, BID vs QD oral dosing, BALB/c mice; assay type: in vivo; settings: for half-life / AUC(0-t): both sexes, BALB/c, mouse, po
Protocol: (§1) A dose frequency study was performed in male and female mice (C57BL/6 & BALB/c) and in male and female rats (Sprague Dawley & Wistar) investigating twice daily (BID) versus once daily (QD) brensocatib administration.
(§2) Briefly, animals were weighed and randomized into different treatment groups. In total, three different dosing levels of brensocatib were tested in each species and strain; each QD dosing level was equivalent to 1.5-times the matching daily BID dose. For BID dosing, the second daily dose was administered 8-h post the morning dose. C57BL/6 mice were dosed either BID or QD for 7 consecutive days at 0/0, 0.5/0.75, 2/3, and 20/30 mg/kg/day (BID/QD). BALB/c mice were dosed for 7 consecutive days at 0/0, 0.2/0.3, 2/3, and 20/30 mg/kg/day (BID/QD). SD rats were dosed for 9 consecutive days at 0/0, 0.2/0.3, 2/3, and 20/30 mg/kg/day (BID/QD). Wistar rats were dosed for 7 consecutive days at 0/0, 0.2/0.3, 2/3, and 20/30 mg/kg/day (BID/QD).
(§3) For sparse PK analysis via LC-MS/MS, plasma was collected from animals during the first 24 h of dosing at prescribed timepoints. The timepoints included 1, 3, 8, and 24 h post initial dose for QD groups, and 1, 3, 8, 9, 11, and 24 h post initial dose for BID groups. Note that the 8- and 24-h plasma samples were prior to the afternoon dose for BID groups and prior to the second day dose for all groups, respectively. See section Quantification of Plasma Brensocatib Concentrations for details.
(§4) Blood was collected via the tail-vein technique and centrifuged to separate and collect the plasma. The resulting plasma samples were stored at −20°C or lower until LC-MS/MS analysis.
(§5) The plasma concentration of brensocatib was quantified by liquid chromatography, tandem mass spectrometry (LC-MS/MS), a Sciex API6500 mass spectrometer (SCIEX, Framingham, MA). Two brensocatib stock solutions were prepared, one for the preparation of the 8-point standard (STD) curve spiking solutions and the other for the preparation of the quantitative control spiking solutions (QCs) at three levels. The STD curve and QCs were prepared by 2% spiking from the spiking solutions into mouse or rat plasma. The samples were extracted using a protein precipitation method, where 10 µL of sample was mixed with 100 µL of internal standard working solution (100 ng/mL ^6C13-brensocatib in methanol), vortexed for 5 s, and centrifuged at 21,130 × g at 4°C for 15 min. The supernatant was mixed with an equal volume of water and 10 μL was injected into a Phenomenex Kinetex Biphenyl column (3.0 mm × 50 mm; 2.6 μm; 65°C; 0.8 mL/min) with an elution gradient consisting of mobile phase A (10 mM ammonium formate) and mobile phase B (methanol) over 2 min from 5% to 95% B. The mass spectrometer was equipped with an atmospheric-pressure chemical ionization source operating in positive mode.
(§6) Individual plasma concentrations were plotted and the area under the curve (AUC) was calculated using the trapezoid method. The elimination rate constant (k e ) was calculated as the negative natural log of the plasma concentration over time (Eq. 1) starting at the max concentration (C max) after the most recent dose to the last measurable plasma concentration between doses. The calculated k e was used to define the half-life (t 1/2 ) based on Eq. 2; where 0.693 is the natural log of 2 and assumes a first-order reaction. ke=−ln∆C/∆t (1) t1/2=0.693/ke (2)

[2] = Plasma PK of brensocatib, BID vs QD oral dosing, Wistar rats; assay type: in vivo; settings: both sexes, rat; for half-life: Wistar, po; for AUC(0-t): first 24 h
Protocol: as §1, §2, §3, §4, §5, §6

[3] = tested on: CatG; set-up: method as in Cipolla et al., 2023; settings: Phase 2 trial in NCFBE (WILLOW); ref Cipolla et al., 2023; cited from earlier work
[4] = 0.2 mg/kg/day, oral BID, 0.2 mg/kg/day, evening dose, read-out: t1/2, PM dose (converted)
[5] = 0.2 mg/kg/day, oral BID, 0.2 mg/kg/day, morning dose, read-out: t1/2, AM dose (converted)
[6] = 0.3 mg/kg/day, oral QD, 0.3 mg/kg/day, read-out: t1/2, AM dose (converted)
[7] = 2 mg/kg/day, oral BID, 2 mg/kg/day, evening dose, read-out: t1/2, PM dose (converted)
[8] = 2 mg/kg/day, oral BID, 2 mg/kg/day, morning dose, read-out: t1/2, AM dose (converted)
[9] = 3 mg/kg/day, oral QD, 3 mg/kg/day, read-out: t1/2, AM dose (converted)
[10] = 20 mg/kg/day, oral BID, 20 mg/kg/day, evening dose, read-out: t1/2, PM dose (converted)
[11] = 20 mg/kg/day, oral BID, 20 mg/kg/day, morning dose, read-out: t1/2, AM dose (converted)
[12] = 30 mg/kg/day, oral QD, 30 mg/kg/day, read-out: t1/2, AM dose (converted)

half-life [1, 4]: 0.67 ± 0.04 h
AUC(0-t) ([1]; 0.2 mg/kg/day, oral BID, 0.2 mg/kg/day, first 24 h, read-out: AUC0–24h): 124 ± 31 ng·h/mL
AUC(0-t) ([1]; 0.2 mg/kg/day, oral BID, 0.2 mg/kg/day, first 24 h, read-out: AUC(0–24)): 0.29 ± 0.07 µM·h
half-life [1, 5]: 1.58 ± 0.72 h
AUC(0-t) ([1]; 0.3 mg/kg/day, oral QD, 0.3 mg/kg/day, first 24 h, read-out: AUC0–24h): 188 ± 31 ng·h/mL
AUC(0-t) ([1]; 0.3 mg/kg/day, oral QD, 0.3 mg/kg/day, first 24 h, read-out: AUC(0–24)): 0.45 ± 0.07 µM·h
half-life [1, 6]: 0.97 ± 0.03 h
half-life [1, 7]: 1.19 ± 0.34 h
AUC(0-t) ([1]; 2 mg/kg/day, oral BID, 2 mg/kg/day, first 24 h, read-out: AUC0–24h): 1510 ± 395 ng·h/mL
AUC(0-t) ([1]; 2 mg/kg/day, oral BID, 2 mg/kg/day, first 24 h, read-out: AUC(0–24)): 3.59 ± 0.94 µM·h
half-life [1, 8]: 3.22 ± 0.35 h
AUC(0-t) ([1]; 3 mg/kg/day, oral QD, 3 mg/kg/day, first 24 h, read-out: AUC0–24h): 2960 ± 679 ng·h/mL
AUC(0-t) ([1]; 3 mg/kg/day, oral QD, 3 mg/kg/day, first 24 h, read-out: AUC(0–24)): 7.04 µM·h
half-life [1, 9]: 0.83 ± 0.03 h
half-life [1, 10]: 1.88 ± 0.06 h
AUC(0-t) ([1]; 20 mg/kg/day, oral BID, 20 mg/kg/day, first 24 h, read-out: AUC0–24h): 24100 ng·h/mL
AUC(0-t) ([1]; 20 mg/kg/day, oral BID, 20 mg/kg/day, first 24 h, read-out: AUC(0–24)): 57.3 ± 11.4 µM·h
half-life [1, 11]: 2.47 ± 0.31 h
AUC(0-t) ([1]; 30 mg/kg/day, oral QD, 30 mg/kg/day, first 24 h, read-out: AUC0–24h): 56300 ng·h/mL
AUC(0-t) ([1]; 30 mg/kg/day, oral QD, 30 mg/kg/day, first 24 h, read-out: AUC(0–24)): 134 ± 41.1 µM·h
half-life [1, 12]: 2.56 ± 0.14 h
AUC(0–24) ([1]; oral QD, 3 mg/kg/day, first 24 h): 7.05 ± 1.61 µM·h
half-life [2, 4]: 6.45 ± 0.55 h
half-life [2, 5]: 5.48 ± 1.76 h
half-life [2, 6]: 34.3 ± 20.3 h
half-life [2, 7]: 4.99 ± 0.33 h
half-life [2, 8]: 10.2 ± 1.47 h
half-life [2, 9]: 5.14 ± 0.5 h
half-life [2, 10]: 4.33 ± 0.16 h
half-life [2, 11]: 7.81 ± 1.38 h
half-life [2, 12]: 4.41 ± 0.18 h
AUC(0-t) ([2]; oral BID, 0.2 mg/kg/day, read-out: AUC0–24h): 377 ± 78 ng·h/mL
AUC(0-t) ([2]; oral BID, 0.2 mg/kg/day, read-out: AUC(0–24)): 0.9 ± 0.18 µM·h
AUC(0-t) ([2]; oral BID, 2 mg/kg/day, read-out: AUC0–24h): 9820 ± 1820 ng·h/mL
AUC(0-t) ([2]; oral BID, 2 mg/kg/day, read-out: AUC(0–24)): 23.4 ± 4.32 µM·h
AUC(0-t) ([2]; oral BID, 20 mg/kg/day, read-out: AUC0–24h): 173000 ng·h/mL
AUC(0-t) ([2]; oral BID, 20 mg/kg/day, read-out: AUC(0–24)): 412 ± 89.6 µM·h
AUC(0-t) ([2]; oral QD, 0.3 mg/kg/day, read-out: AUC0–24h): 1040 ± 291 ng·h/mL
AUC(0-t) ([2]; oral QD, 0.3 mg/kg/day, read-out: AUC(0–24)): 2.46 ± 0.69 µM·h
AUC(0-t) ([2]; oral QD, 3 mg/kg/day, read-out: AUC0–24h): 11700 ng·h/mL
AUC(0-t) ([2]; oral QD, 3 mg/kg/day, read-out: AUC(0–24)): 27.9 ± 5.53 µM·h
AUC(0-t) ([2]; oral QD, 30 mg/kg/day, read-out: AUC0–24h): 266000 ng·h/mL
AUC(0-t) ([2]; oral QD, 30 mg/kg/day, read-out: AUC(0–24)): 634 ± 52.4 µM·h
SMILES: Cn1c(=O)oc2ccc(-c3ccc(C[C@@H](C#N)NC(=O)[C@@H]4CNCCCO4)cc3)cc21 [brensocatib]
sputum CatG activity [3]: Dose-dependent reductions
